Assay: in vitro
Conditions: human, hela cells, % viability

| SMILES | viability at 28.5 h, 10 µM [%] |
| --- | --- |
| CC(=O)N1CCc2c(sc(NC(=O)c3ccccc3C)c2C#N)C1 [CBK304681] | 78.7 |
| CC1CCc2c(sc(NC(=O)c3ccn(C)n3)c2C#N)C1 (stereo not shown) [CBK304682] | 89.8 |
| CC1(C(=O)NS(=O)(=O)c2cccc(-c3nnco3)c2)CC1 [CBK304683] | 106 |
| Cc1sc2ncn(CC(=O)NCCc3c[nH]cn3)c(=O)c2c1C [CBK304685] | 99.3 |
| Cc1ccnc(SCC(=O)c2cc(C)n(C3CC3)c2C)n1 [CBK304686] | 97.6 |
| Cn1nccc1CN1CCOC(c2nc(C(C)(C)C)cs2)C1 (stereo not shown) [CBK304690] | 93.7 |
| Cc1cc(N2CCOC(c3cccs3)C2)ccn1 (stereo not shown) [CBK304691] | 96.2 |
| CCN(CC)CCn1c(NC(=O)CCC2CCNC2)nc2ccccc21 (stereo not shown) [CBK304693] | 92.3 |
| Cc1cc(-c2csc(CC(C)n3cc(Cl)cn3)n2)on1 (stereo not shown) [CBK304700] | 91.3 |
| Cn1cc(CN2CCC(CNc3ccccn3)C2)cn1 (stereo not shown) [CBK304705] | 101 |
| Cc1nc(C)c(-c2csc(CC(C)n3cc(Cl)cn3)n2)o1 (stereo not shown) [CBK304710] | 106 |
| CCOC(=O)c1nc(C2CCN(c3cccc(F)c3C#N)CC2)n[nH]1 [CBK304711] | 119 |
| CC1CC1c1nnc(C2(c3ccc(Br)cc3)CCOCC2)o1 (stereo not shown) [CBK304712] | 94.1 |
| Cn1nc(C(C)(C)C)c2cc(C(=O)N3CCCc4occc4C3)cnc21 [CBK304713] | 97.7 |
| COc1cc(CNC2CCCc3c2cnn3C)c(O)c(C(C)(C)C)c1 (stereo not shown) [CBK304716] | 84.4 |
| CCn1cc(S(=O)(=O)Nc2cccc(CCCC(=O)O)c2)cn1 [CBK304717] | 102 |
| CN(c1cccc(C#N)c1)C1CCN(c2nccn(C)c2=O)C1 (stereo not shown) [CBK304718] | 105 |
| COc1ccc(CC(=O)N2CCCC2c2nnc3ccccn23)cc1 (stereo not shown) [CBK304719] | 117 |
| CN(c1cccc(C#N)c1)C1CCN(c2ncnc3c2cnn3C)C1 (stereo not shown) [CBK304720] | 87.4 |
| COc1cc(CNCc2cnn(C)c2)c(O)c(C(C)(C)C)c1 [CBK304721] | 85.8 |
| CCOCC(=O)N(C)C(CO)c1cc(OC)ccc1Br (stereo not shown) [CBK304722] | 90 |
| Fc1cc(Br)c(CNCc2ccno2)c(N2CCCCC2)c1F [CBK304723] | 86.8 |
| Nc1nc(O)cc(C2CCN(CCOc3ccccc3F)C2)n1 (stereo not shown) [CBK304726] | 102 |
| CCc1ccc2c(c1)C(CCNC(=O)c1ncccc1F)C(=O)N2 (stereo not shown) [CBK304727] | 106 |
| CCc1ccc2c(c1)C(CCNC(=O)c1cscc1C(F)(F)F)C(=O)N2 (stereo not shown) [CBK304728] | 82.5 |

| SMILES | viability at 28.5 h, 10 µM [%] |
| --- | --- |
| O=S(=O)(c1sccc1F)N1CCOCC1c1cccc(F)c1 (stereo not shown) [CBK304730] | 82.6 |
| N#Cc1cnccc1N1CC2COCCC2(C(=O)N2CCCC2)C1 (stereo not shown) [CBK304731] | 83 |
| CC(C)n1cc(CN2CCNC(=O)C2c2ccccc2C(F)(F)F)nn1 (stereo not shown) [CBK304732] | 91.6 |
| Cc1c(C(=O)N2CCC(CN)C2)nnn1-c1ccc2ncccc2c1 (stereo not shown) [CBK304734] | 101 |
| CC1CN(Cc2cccc(CNc3nccnc3C#N)c2)CCO1 (stereo not shown) [CBK304736] | 94 |
| COCc1nc2n(n1)CC(NC1CCc3ccccc3CC1)CC2 (stereo not shown) [CBK304737] | 96.1 |
| Cc1c(C(=O)N(CC(=O)O)C2CC2)nnn1-c1ccc(Cl)cc1F [CBK304738] | 91.1 |
| CC(C)(C#N)c1ccccc1CN1CCCCC1c1[nH]ncc1C(N)=O (stereo not shown) [CBK304740] | 108 |
| CC1=CCCN(C(=O)C23CCOCC2CN(c2ncccn2)C3)C1 (stereo not shown) [CBK304743] | 101 |
| N#Cc1cccnc1N1CC2COCCC2(C(=O)N2CCC=C(F)C2)C1 (stereo not shown) [CBK304744] | 91.5 |
| NC1CCCN(C(=O)c2ccc(Oc3cccc(Br)c3)nc2)C1 (stereo not shown) [CBK304747] | 92.6 |
| Cc1csc(N2CCC(NC3COc4ccc(F)cc4C3)CC2)n1 (stereo not shown) [CBK304751] | 101 |
| CCOc1cc(NC2CCN(C(=O)Cc3ccncc3)CC2)ncn1 [CBK304752] | 101 |
| Cc1noc(C2(O)CCN(CCc3ccc(F)c(F)c3)C2)n1 (stereo not shown) [CBK304753] | 93.9 |
| CC1CN(c2cc(CO)c(F)cn2)CC2(CCOC2C)O1 (stereo not shown) [CBK304754] | 101 |
| CCOCC1CN(c2cc(CO)c(F)cn2)CCO1 (stereo not shown) [CBK304756] | 92 |
| CCC1CN(c2cc(CO)c(F)cn2)CC2(CCOC2)O1 (stereo not shown) [CBK304757] | 92.9 |
| CCn1cc(CN2CCCN(C(=O)c3ccc(Cl)cn3)CC2)cn1 [CBK304760] | 84.3 |
| CCCC(=O)N1CCn2c(nnc2-c2cncc(Br)c2)C1 [CBK304761] | 93.4 |
| Cn1ccc(CNCc2c(Br)cc(F)c(F)c2N2CCCCC2)n1 [CBK304763] | 105 |
| CCCC(=O)Nc1ccc(OCc2cnccn2)c(C(C)=O)c1 [CBK304766] | 102 |
| O=C(CCCC1CC1)N1CCn2c(nnc2-c2cncc(Br)c2)C1 [CBK304767] | 96.4 |
| COCC1CN(S(=O)(=O)c2cnc3ccsc3c2)C1 [CBK304768] | 72.4 |
| Cc1ccc(Cl)c(OC(C)C(=O)N2CCOC(CC(=O)O)C2)c1 (stereo not shown) [CBK304769] | 93 |
| CC1CN(c2cc(CO)c(F)cn2)CC2(CCOC2)O1 (stereo not shown) [CBK304772] | 93.8 |

| SMILES | viability at 28.5 h, 10 µM [%] |
| --- | --- |
| OCc1cc(N2CCOC3(CCCOC3)C2)ncc1F (stereo not shown) [CBK304774] | 94.7 |
| Cn1nnc2cc(NCC3(CNC(=O)OC(C)(C)C)CC3)ccc21 [CBK304777] | 89.1 |
| CCN(Cc1cnn(C)c1)S(=O)(=O)c1ccc2c(c1)CCCC(=O)N2 [CBK304782] | 100 |
| Cn1cc(CN2CCOC(c3nc(C(C)(C)C)cs3)C2)nn1 (stereo not shown) [CBK304783] | 90.5 |
| CCn1cc(CN2CCCN(C(=O)c3cn4ccccc4n3)CC2)cn1 [CBK304784] | 98.3 |
| CN(Cc1ccc(Br)cc1Cl)C(=O)c1cn[nH]c1C1CCNC1 (stereo not shown) [CBK304785] | 93.5 |
| Cc1cc(C)cc(OCC(=O)Nc2c(C#N)c(C)nn2C)c1 [CBK304791] | 110 |
| Cc1ccnc(N2CCOC3(CCCC3)C2)n1 [CBK304794] | 93.1 |
| Cn1cc(CC2CCN(Cc3ccncc3)C2)cn1 (stereo not shown) [CBK304796] | 107 |
| Cc1csc(CC(C)n2cc(Cl)cn2)n1 (stereo not shown) [CBK304797] | 99.8 |
| CCC(CNC(=O)c1ccoc1C)N1CCCC1 (stereo not shown) [CBK304798] | 88.9 |
| CCCc1csc(C2CN3CCCC3CO2)n1 (stereo not shown) [CBK304799] | 88.3 |
| CCCNC(=O)CN(C)Cc1cn2cccc(C)c2n1 [CBK304800] | 85.2 |
| CC(=O)Nc1cccc(CN(CCCCO)C2CC2)c1 [CBK304806] | 91.6 |
| CC(=O)NCCCSCc1cn2cccc(C)c2n1 [CBK304809] | 98.5 |
| Cc1nc(C(=O)N(CCO)Cc2ccccc2)cs1 [CBK304810] | 105 |
| COCC(C)N(C)S(=O)(=O)c1ccc(Cl)nc1 (stereo not shown) [CBK304813] | 95.2 |
| CCC1CCCCN1C(=O)c1ccc(NC2CC2)nc1 (stereo not shown) [CBK304815] | 92.2 |
| Cc1cc(C)n(CCCNC(=O)Nc2cccnc2)n1 [CBK304820] | 84.6 |
| Cc1nnc(CN(CC2CCCO2)C2CCC(C)CC2)o1 (stereo not shown) [CBK304824] | 94.7 |
| Cc1nn(C)c(Cl)c1CN(CCC#N)Cc1ccco1 [CBK304825] | 96.6 |
| Cc1noc(C)c1CN(C)C(C)C(=O)Nc1nccs1 (stereo not shown) [CBK304826] | 105 |
| COc1ccc(CCNC(=O)CN2CCCCC2C)cc1 (stereo not shown) [CBK304827] | 94.4 |
| Cc1nc(CCNCc2c(C)nn(C)c2N(C)C)cs1 [CBK304828] | 88.3 |
| Cc1cnn(C2CCCN(C(=O)Cc3cccs3)C2)c1 (stereo not shown) [CBK304832] | 102 |

| SMILES | viability at 28.5 h, 10 µM [%] |
| --- | --- |
| CC(=O)Nc1cccc(CN(CCCO)c2ccccc2)c1 [CBK304833] | 97.1 |
| Cc1nc(S(=O)(=O)N2CCOC3(CCCC3)C2)cn1C [CBK304834] | 109 |
| CC1CCC(C(N)=O)CN1c1cc(=O)n2ccccc2n1 (stereo not shown) [CBK304835] | 104 |
| CCc1nc2n(n1)CC(NC1CCCc3ccccc31)CC2 (stereo not shown) [CBK304837] | 95.6 |
| CCOC(=O)C1CCCN(Cc2c(C)nn(C)c2Cl)C1 (stereo not shown) [CBK304838] | 92.4 |
| CC(C)(C)OC(=O)N1CCC(NCCc2ccccn2)C1 (stereo not shown) [CBK304839] | 94.2 |
| CC(Oc1cccc(F)c1)C(=O)N(C)Cc1cccnc1 (stereo not shown) [CBK304841] | 95.5 |
| c1cnn(CC2CCCCN2c2ncnc3ccsc23)c1 (stereo not shown) [CBK304843] | 88.3 |
| N#Cc1ccccc1C(=O)N(CCO)Cc1ccccc1 [CBK304844] | 89.8 |
| CC(Cn1cccn1)NCC(=O)NC1(C#N)CCCCC1 (stereo not shown) [CBK304845] | 102 |
| Cc1cc(C)n(CC2CCCN2CCc2ccccn2)n1 (stereo not shown) [CBK304846] | 100 |
| O=C1CCC(CNS(=O)(=O)c2ccccc2Cl)N1 (stereo not shown) [CBK304850] | 103 |
| Cc1nnc(CN(C)C2CCN(CC3CCCC3)C2)n1C (stereo not shown) [CBK304851] | 106 |
| Cc1cc(C)n(CC2CCCCN2Cc2ccccn2)n1 (stereo not shown) [CBK304853] | 86.7 |
| CCC(O)CN1CCCC(c2nc3cc(C)ccc3[nH]2)C1 (stereo not shown) [CBK304854] | 88.8 |
| Cc1cc(CNCc2c(C(C)C)nn(C)c2N(C)C)no1 [CBK304855] | 97 |
| Cc1noc(C2(O)CCN(Cc3sccc3Cl)C2)n1 (stereo not shown) [CBK304863] | 97.5 |
| Cc1ccc(C)c(CSC2CCN(C3CCOCC3)C2=O)c1 (stereo not shown) [CBK304865] | 103 |
| CCc1noc(C)c1C(=O)N1CCN(C2CCCC2O)CC1 (stereo not shown) [CBK304869] | 78 |
| CC1CN(S(=O)(=O)C(C)C)CCC1NCc1ccncc1 (stereo not shown) [CBK304870] | 89.6 |
| O=C(Cc1ccn[nH]1)N1CC(O)CC1c1cc(F)ccc1F (stereo not shown) [CBK304872] | 92.3 |
| CN(CCc1ccncc1)C(=O)CCc1cc(F)ccc1F [CBK304876] | 90.6 |

From article PMC12040169 (PLOS Biology, 2025)
